Measurements published in patent US10556874B2, “N-(1,3,4-oxadiazol-2-yl)aryl carboxamide derivatives with herbicidal action” (Bayer CropScience Aktiengesellschaft, priority 2015, dated 2020).

Experiments:
Format in all cases: in vivo
Stellaria media [1] = experiment: Pre-emergence herbicidal action against harmful plants; details: 504 h, application rate 320 g/ha, scored visually after 3 weeks vs untreated controls, read-out: herbicidal activity in percent
Source text: (§1) 1. Pre-Emergence Herbicidal Action Against Harmful Plants
(§2) Seeds of monocotyledonous and dicotyledonous weed plants and crop plants are laid out in wood-fiber pots in sandy loam and covered with soil. The compounds of the invention, formulated in the form of wettable powders (WP) or as emulsion concentrates (EC), are then applied to the surface of the covering soil in the form of an aqueous suspension or emulsion at a water application rate equating to 600 to 800 l/ha, with addition of 0.2% wetting agent. After the treatment, the pots are placed in a greenhouse and kept under good growth conditions for the trial plants. The damage to the test plants is scored visually after a test period of 3 weeks by comparison with untreated controls (herbicidal activity in percent (%): 100% activity=the plants have died, 0% activity=like control plants). Here, for example, the compounds Nos. 1-145, 1-385, 3-385, 4-145, 4-385, 6-385, 7-145, 7-385 and 9-385, at an application rate of 320 g/ha, each show an activity of at least 80% against Stellaria media and Veronica persica.

Veronica persica = experiment: as above; details: 504 h, application rate 320 g/ha, scored visually after 3 weeks vs untreated controls, read-out: herbicidal activity in percent
Source text: as §1, §2

Amaranthus retroflexus = experiment: Post-emergence herbicidal action against harmful plants; details: 504 h, application rate 80 g/ha, assessed visually after about 3 weeks vs untreated controls, read-out: herbicidal action in percent
Procedure: (§3) 2. Post-Emergence Herbicidal Action Against Harmful Plants
(§4) Seeds of monocotyledonous and dicotyledonous weed and crop plants are laid out in sandy loam soil in wood-fiber pots, covered with soil and cultivated in a greenhouse under good growth conditions. 2 to 3 weeks after sowing, the test plants are treated at the one-leaf stage. The compounds of the invention, formulated in the form of wettable powders (WP) or as emulsion concentrates (EC), are then sprayed onto the green parts of the plants in the form of an aqueous suspension or emulsion at a water application rate equating to 600 to 800 l/ha, with addition of 0.2% wetting agent. After the test plants have been left to stand in the greenhouse under optimal growth conditions for about 3 weeks, the action of the preparations is assessed visually in comparison to untreated controls (herbicidal action in percent (%): 100% activity=the plants have died, 0% activity=like control plants). Here, for example, the compounds Nos. 1-145, 1-385, 3-385, 4-145, 4-385, 6-385, 7-145, 7-385 and 9-385, at an application rate of 80 g/ha, each show an activity of at least 80% against Stellaria media and Amaranthus retroflexus.

Stellaria media [2] = experiment: as above; details: 504 h, application rate 80 g/ha, assessed visually after about 3 weeks vs untreated controls, read-out: herbicidal action in percent
Procedure: as §3, §4

[3] = system: Alopecurus myosuroides (ALOMY); experiment: Comparative experiment in pre-emergence; details: dosage 80 g/ha, 100% = plants have died, 0% = like control plants
Source text: as §2
3. Comparative Experiment in Pre-Emergence
For comparative purposes, the herbicidal activity of some compounds according to the invention and the most structurally similar compounds known from the prior art were tested.

Compound: CCOC(=O)OC(C)N(C(=O)c1ccc(C(F)(F)F)c(S(C)(=O)=O)c1C)c1nnc(C)o1 (stereo not shown) [Compound No. 1-145, ethyl 1-{[2-methyl-3-(methylsulfonyl)-4-(trifluoromethyl)benzoyl](5-methyl-1,3,4-oxadiazol-2-yl)amino}ethyl carbonate]
- pest or weed control at 320 g/ha (Stellaria media [1]): ≥ 80%
- pest or weed control at 320 g/ha (Veronica persica): ≥ 80%
- pest or weed control at 80 g/ha (Amaranthus retroflexus): ≥ 80%
- pest or weed control at 80 g/ha (Stellaria media [2]): ≥ 80%
- Herbicidal activity against ALOMY [3]: 100%

Compound: CCOC(=O)OC(C)N(C(=O)c1ccc(C(F)(F)F)c([S+](C)[O-])c1Cl)c1nnc(C)o1 (stereo not shown) [Compound No. 1-385, 1-{[2-chloro-3-(methylsulfinyl)-4-(trifluoromethyl)benzoyl](5-methyl-1,3,4-oxadiazol-2-yl)amino}ethyl ethyl carbonate]
- pest or weed control at 320 g/ha (Stellaria media [1]): ≥ 80%
- pest or weed control at 320 g/ha (Veronica persica): ≥ 80%
- pest or weed control at 80 g/ha (Amaranthus retroflexus): ≥ 80%
- pest or weed control at 80 g/ha (Stellaria media [2]): ≥ 80%

Compound: Cc1nnc(N(C(=O)c2ccc(C(F)(F)F)c([S+](C)[O-])c2Cl)C(C)OC(=O)OC2CCCCC2)o1 (stereo not shown) [Compound No. 3-385, 1-{[2-chloro-3-(methylsulfinyl)-4-(trifluoromethyl)benzoyl](5-methyl-1,3,4-oxadiazol-2-yl)amino}ethyl cyclohexyl carbonate]
- pest or weed control at 320 g/ha (Stellaria media [1]): ≥ 80%
- pest or weed control at 320 g/ha (Veronica persica): ≥ 80%
- pest or weed control at 80 g/ha (Amaranthus retroflexus): ≥ 80%
- pest or weed control at 80 g/ha (Stellaria media [2]): ≥ 80%
- Herbicidal activity against ALOMY [3]: 100%

Compound: CCOC(=O)OC(C)n1nc(C)oc1=NC(=O)c1ccc(C(F)(F)F)c(S(C)(=O)=O)c1C (stereo not shown) [Compound No. 4-145, ethyl 1-[5-methyl-2-{[2-methyl-3-(methylsulfonyl)-4-(trifluoromethyl)benzoyl]imino}-1,3,4-oxadiazol-3(2H)-yl]ethyl carbonate]
- pest or weed control at 320 g/ha (Stellaria media [1]): ≥ 80%
- pest or weed control at 320 g/ha (Veronica persica): ≥ 80%
- pest or weed control at 80 g/ha (Amaranthus retroflexus): ≥ 80%
- pest or weed control at 80 g/ha (Stellaria media [2]): ≥ 80%

Compound: CCOC(=O)OC(C)n1nc(C)oc1=NC(=O)c1ccc(C(F)(F)F)c([S+](C)[O-])c1Cl (stereo not shown) [Compound No. 4-385, ethyl 1-[5-methyl-2-{[2-chloro-3-(methylsulfinyl)-4-(trifluoromethyl)benzoyl]imino}-1,3,4-oxadiazol-3(2H)-yl]ethyl carbonate]
- pest or weed control at 320 g/ha (Stellaria media [1]): ≥ 80%
- pest or weed control at 320 g/ha (Veronica persica): ≥ 80%
- pest or weed control at 80 g/ha (Amaranthus retroflexus): ≥ 80%
- pest or weed control at 80 g/ha (Stellaria media [2]): ≥ 80%

Compound: Cc1nn(C(C)OC(=O)OC2CCCCC2)c(=NC(=O)c2ccc(C(F)(F)F)c([S+](C)[O-])c2Cl)o1 (stereo not shown) [Compound No. 6-385, 1-[2-{[2-chloro-3-(methylsulfinyl)-4-(trifluoromethyl)benzoyl]imino}-5-methyl-1,3,4-oxadiazol-3(2H)-yl]ethyl cyclohexyl carbonate]
- pest or weed control at 320 g/ha (Stellaria media [1]): ≥ 80%
- pest or weed control at 320 g/ha (Veronica persica): ≥ 80%
- pest or weed control at 80 g/ha (Amaranthus retroflexus): ≥ 80%
- pest or weed control at 80 g/ha (Stellaria media [2]): ≥ 80%

Compound: CCOC(=O)OC(C)OC(=Nc1nnc(C)o1)c1ccc(C(F)(F)F)c(S(C)(=O)=O)c1C (stereo not shown) [Compound No. 7-145, 1-[(ethoxycarbonyl)oxy]ethyl-2-methyl-N-(5-methyl-1,3,4-oxadiazol-2-yl)-3-(methylsulfonyl)-4-(trifluoromethyl)benzenecarboximidate]
- pest or weed control at 320 g/ha (Stellaria media [1]): ≥ 80%
- pest or weed control at 320 g/ha (Veronica persica): ≥ 80%
- pest or weed control at 80 g/ha (Amaranthus retroflexus): ≥ 80%
- pest or weed control at 80 g/ha (Stellaria media [2]): ≥ 80%

Compound: CCOC(=O)OC(C)OC(=Nc1nnc(C)o1)c1ccc(C(F)(F)F)c([S+](C)[O-])c1Cl (stereo not shown) [Compound No. 7-385, 1-[(ethoxycarbonyl)oxy]ethyl-2-chloro-N-(5-methyl-1,3,4-oxadiazol-2-yl)-3-(methylsulfinyl)-4-(trifluoromethyl)benzenecarboximidate]
- pest or weed control at 320 g/ha (Stellaria media [1]): ≥ 80%
- pest or weed control at 320 g/ha (Veronica persica): ≥ 80%
- pest or weed control at 80 g/ha (Amaranthus retroflexus): ≥ 80%
- pest or weed control at 80 g/ha (Stellaria media [2]): ≥ 80%
- Herbicidal activity against ALOMY [3]: 90%

Compound: Cc1nnc(N=C(OC(C)OC(=O)OC2CCCCC2)c2ccc(C(F)(F)F)c([S+](C)[O-])c2Cl)o1 (stereo not shown) [Compound No. 9-385, 1-{[(cyclohexyloxy)carbonyl]oxy}ethyl-2-chloro-N-(5-methyl-1,3,4-oxadiazol-2-yl)-3-(methylsulfinyl)-4-(trifluoromethyl)benzenecarboximidate]
- pest or weed control at 320 g/ha (Stellaria media [1]): ≥ 80%
- pest or weed control at 320 g/ha (Veronica persica): ≥ 80%
- pest or weed control at 80 g/ha (Amaranthus retroflexus): ≥ 80%
- pest or weed control at 80 g/ha (Stellaria media [2]): ≥ 80%
- Herbicidal activity against ALOMY [3]: 90%
